ChEMBL document CHEMBL1156379, “Furanosesquiterpenoids of Commiphora myrrha” (J Nat Prod, 2001)

Tested on: MCF7; call rule not given here
Test: Cytotoxicity against human MCF7 cells after 15 days by clonogenic assay
Type: functional, cell-based

| Compound | IC50 (mcf7) | IC50 (Homo sapiens, MCF7, 360 h, read-out: IC50) |
| --- | --- | --- |
| C=C1/C=C/[C@H](OC)[C@@H](C)CC(=O)c2c(C)coc2C1 (relative stereo) | Not Active |  |
| C=C1Cc2occ(C)c2C(=O)C[C@H](C)C[C@@H]2O[C@@H]12 (relative stereo) |  | 40 µM |
| CO[C@H]1/C=C(\C)Cc2occ(C)c2C(=O)C[C@H](C)C1 (relative stereo) | Not Active |  |
| CO[C@H]1/C=C(/C)Cc2occ(C)c2C(=O)[C@@H](OC(C)=O)[C@H](C)C1 (relative stereo) | Not Active |  |
